Measurements reported in US20210038587A1, “METHODS AND COMPOSITIONS FOR TREATING NON-ERK MAPK PATHWAY INHIBITOR-RESISTANT CANCERS” (BIOMED VALLEY DISCOVERIES, INC., priority 2013, published 2021).

Assays:
[1] = tested on: A375, MIAPaCa-2, HCT116, Colo205, HT-29, and AN3Ca cells; test: Reverse Phase Protein Analysis (RPPA), all six cell lines; type: cell-based; conditions: 10 μM, 6 hours
Procedure: Control wells were treated with DMSO at 0.1% (v/v) for 6 hours prior to cell lysate generation. Samples were then analyzed using reverse-phase protein microarray technology (Theranostics Health).
Cell lines with common alterations in BRAF and RAS were assayed: BRAF^V600E mutant lines A375, Colo205, and HT29; KRAS^G12C-mutant cell line MIAPACa-2; KRAS^G13D-mutant cell line HCT116; and AN3Ca with atypical HRAS^F82L mutation. Changes in protein levels are shown as a percentage change from dimethyl sulfoxide (DMSO)-treated parental control (FIG. 32A and Table 23).

[2] = tested on: RKO MEK1 (Q56P/+) Clone 1; test: Single agent proliferation assay (CellTiter-Glo, 96 h); type: cell-based; conditions: RKO MEK1 Q56P/+ Cl.1
Procedure: (§1) For assessment of drug sensitivity in cell-line models of acquired resistance, drug sensitivity of dose-escalated A375 cells and isogenic RKO cells was assessed in 96-hour proliferation assays. […] For the A375 assays Alamar blue (ThermoFisher) 10% (v/v) was added and incubated for 4 h, and fluorescent product was then detected using a BMG FLUOstar.
(§2) RKO MEK1 Q56P Isogenic cells were produced by Horizon Discovery (Cambridge, UK; #HD 106-019) using a recombinant AAV-mediated gene targeting strategy. Briefly, rAAV virus was generated following transfection of the appropriate targeting vector and helper vectors in HEK293T cells, purified using an AAV purification kit (Virapur, San Diego, USA) and titrated using qPCR. Parental homozygous RKO cells (homozygous wild type for MEK1) were then infected with rAAV virus and clones that had integrated the selection cassette were identified by G418 selection and expanded. Correctly targeted clones that were heterozygous for knock-in of the MEK1 Q56P point mutation into a single allele were identified by PCR and sequencing.
(§3) Compounds were prepared from DMSO stocks to give the desired final concentrations. The final DMSO concentration was constant at 0.1%. […] CellTiter-Glo® reagent (Promega, Madison, Wis.) was added according to manufacturer's instructions and luminescence detected using the BMG FLUOstar plate reader (BMG Labtech, Ortenberg, Germany).

[3] = tested on: RKO MEK1 (Q56P/+) Clone 2; test: as above; type: cell-based; conditions: RKO MEK1 Q56P/+ Cl.2
Procedure: as §1, §2, §3

[4] = tested on: Colo205; test: Reverse Phase Protein Analysis (RPPA); type: cell-based, human; conditions: % change from DMSO (matched cell line)
[5] = tested on: MIAPaCa-2; test: Reverse Phase Protein Analysis (RPPA); type: cell-based; conditions: MIAPaca2; % change from DMSO (matched cell line)
[6] = tested on: RKO Parental; test: Single agent proliferation assay (CellTiter-Glo, 96 h); type: cell-based
Procedure: as §1, §3

O=C(Nc1ccc2[nH]nc(-c3ccncc3)c2c1)[C@@H]1CCN(CC(=O)N2CCN(c3ccc(-c4ncccn4)cc3)CC2)C1 [SCH772984]
pERK1/2 (ERK1/2-T202, -Y204) [1]: inhibited pERK1/2 in all cell lines | IC50 [2]: 140 nM | IC50 [3]: 120 nM | Avg (4ebp1 T70) [4]: −27.51% | Avg (Akt S473) [4]: −1.74% | Avg (Akt) [4]: −10.31% | Avg (Bad S136) [4]: 1.88% | Avg (Bad S155) [4]: −10.96% | Avg (Bak) [4]: 4.59% | Avg (Bax) [4]: −6.44% | Avg (Bcl 2) [4]: −14.56% | Avg (Bcl2 S70) [4]: −18.52% | Avg (Bcl 2 T56) [4]: −6.73% | Avg (Bim) [4]: 29.22% | Avg (CREB S133) [4]: −14.56% | Avg (Caspase 3 CL D175) [4]: 14.08% | Avg (Caspase 7 Cl D198) [4]: 12.36% | Avg (Chk1) [4]: 7.49% | Avg (Chk1 S345) [4]: 1% | Avg (Cyclin D1) [4]: −36.7% | Avg (ERK 1 2) [4]: −31.87% | Avg (ERK 1 2 T202 Y204) [4]: −91.43% | Avg (MAK1 S360) [4]: 7.54% | Avg (Mcl1) [4]: −0.14% | Avg (Raptor S792) [4]: −4.17% | Avg (Raptor) [4]: −2.2% | Avg (Rictor) [4]: −19.07% | Avg (Stat1) [4]: −4.31% | Avg (Stat3) [4]: −6.1% | Avg (bad S112) [4]: −29.4% | Avg (c Fos) [4]: −15.17% | Avg (c Myc) [4]: −0.64% | Avg (mTOR S2448) [4]: −9.44% | Avg (mTOR S2481) [4]: −6.68% | Avg (mTOR) [4]: −5.62% | Avg (p70 S6 Kinase) [4]: −2.85% | Avg (p90 RSK S380) [4]: −62.31% | Avg(S6 Ribo Prot S235 236) [4]: −94.67% | Avg(S6 Ribo Prot S240 244) [4]: −95.09% | Avg(Tuberin TSC2 Y1571) [4]: −1.38% | Avg(p70 S6 Kinase S371 S394) [4]: −14.59% | Avg(p70 S6 Kinase T389 T412) [4]: −30.4% | Avg (4ebp1 T70) [5]: 19.27% | Avg (Akt S473) [5]: 2.84% | Avg (Akt) [5]: 13.47% | Avg (Bad S136) [5]: 8.62% | Avg (Bad S155) [5]: −1.71% | Avg (Bak) [5]: −10.88% | Avg (Bax) [5]: 15.67% | Avg (Bcl 2) [5]: 4.96% | Avg (Bcl2 S70) [5]: −4.23% | Avg (Bcl 2 T56) [5]: −1.98% | Avg (Bim) [5]: 2.08% | Avg (CREB S133) [5]: −6.63% | Avg (Caspase 3 CL D175) [5]: 21.05% | Avg (Caspase 7 Cl D198) [5]: 8.35% | Avg (Chk1) [5]: 12.07% | Avg (Chk1 S345) [5]: 13.39% | Avg (Cyclin D1) [5]: −39.88% | Avg (ERK 1 2) [5]: −23.09% | Avg (ERK 1 2 T202 Y204) [5]: −76.71% | Avg (MAK1 S360) [5]: 2.74% | Avg (Mcl1) [5]: −1.88% | Avg (Raptor S792) [5]: 4.43% | Avg (Raptor) [5]: 17.66% | Avg (Rictor) [5]: −15.15% | Avg (Stat1) [5]: 7.17% | Avg (Stat3) [5]: −9.19% | Avg (bad S112) [5]: −33.07% | Avg (c Fos) [5]: −8.99% | Avg (c Myc) [5]: 2.11% | Avg (mTOR S2448) [5]: −11.48% | Avg (mTOR S2481) [5]: 2.43% | Avg (mTOR) [5]: 1.64% | Avg (p70 S6 Kinase) [5]: −7.51% | Avg (p90 RSK S380) [5]: −38.58% | Avg(S6 Ribo Prot S235 236) [5]: −77.57% | Avg(S6 Ribo Prot S240 244) [5]: −86.61% | Avg(Tuberin TSC2 Y1571) [5]: 8.86% | Avg(p70 S6 Kinase S371 S394) [5]: −40.47% | Avg(p70 S6 Kinase T389 T412) [5]: −50.97% | IC50 [6]: 40 nM

CC(C)Nc1cc(-c2c[nH]c(C(=O)N[C@H](CO)c3cccc(Cl)c3)c2)c(Cl)cn1 [BVD-523]
IC50 [2]: 170 nM | IC50 [3]: 180 nM | Avg (4ebp1 T70) [4]: −36.35% | Avg (Akt S473) [4]: −5.78% | Avg (Akt) [4]: −3.85% | Avg (Bad S136) [4]: 5.05% | Avg (Bad S155) [4]: −18.18% | Avg (Bak) [4]: 3.79% | Avg (Bax) [4]: 0.28% | Avg (Bcl 2) [4]: −0.13% | Avg (Bcl2 S70) [4]: −10.2% | Avg (Bcl 2 T56) [4]: −11.84% | Avg (Bim) [4]: 41.73% | Avg (CREB S133) [4]: −2.67% | Avg (Caspase 3 CL D175) [4]: −3.18% | Avg (Caspase 7 Cl D198) [4]: 6.76% | Avg (Chk1) [4]: −2.86% | Avg (Chk1 S345) [4]: −4.63% | Avg (Cyclin D1) [4]: −23.65% | Avg (ERK 1 2) [4]: −18.83% | Avg (ERK 1 2 T202 Y204) [4]: 14.39% | Avg (MAK1 S360) [4]: 14.69% | Avg (Mcl1) [4]: −2.7% | Avg (Raptor S792) [4]: 0.41% | Avg (Raptor) [4]: −7.14% | Avg (Rictor) [4]: −5.21% | Avg (Stat1) [4]: 0.53% | Avg (Stat3) [4]: −2.58% | Avg (bad S112) [4]: −31.51% | Avg (c Fos) [4]: −12.25% | Avg (mTOR S2448) [4]: −23.51% | Avg (mTOR S2481) [4]: −1.33% | Avg (mTOR) [4]: 12.77% | Avg (p70 S6 Kinase) [4]: 0.14% | Avg (p90 RSK S380) [4]: −50.84% | Avg(S6 Ribo Prot S235 236) [4]: −96.15% | Avg(S6 Ribo Prot S240 244) [4]: −97.33% | Avg(Tuberin TSC2 Y1571) [4]: −3.48% | Avg(p70 S6 Kinase S371 S394) [4]: −18.11% | Avg(p70 S6 Kinase T389 T412) [4]: −36.4% | Avg (4ebp1 T70) [5]: −9.42% | Avg (Akt S473) [5]: 9.9% | Avg (Akt) [5]: 23.63% | Avg (Bad S136) [5]: −4.12% | Avg (Bad S155) [5]: −5.65% | Avg (Bak) [5]: −15.15% | Avg (Bax) [5]: 23.44% | Avg (Bcl 2) [5]: 5.86% | Avg (Bcl2 S70) [5]: 0.89% | Avg (Bcl 2 T56) [5]: −1.78% | Avg (Bim) [5]: −12.51% | Avg (CREB S133) [5]: −19.26% | Avg (Caspase 3 CL D175) [5]: 22.35% | Avg (Caspase 7 Cl D198) [5]: −6.44% | Avg (Chk1) [5]: −3.51% | Avg (Chk1 S345) [5]: 1.2% | Avg (Cyclin D1) [5]: −37.9% | Avg (ERK 1 2) [5]: −40.33% | Avg (ERK 1 2 T202 Y204) [5]: 209.14% | Avg (MAK1 S360) [5]: −10.72% | Avg (Mcl1) [5]: −7.27% | Avg (Raptor S792) [5]: 5.95% | Avg (Raptor) [5]: 21.15% | Avg (Stat1) [5]: 8.62% | Avg (Stat3) [5]: −1.23% | Avg (bad S112) [5]: −30.29% | Avg (c Fos) [5]: −18.44% | Avg (c Myc) [5]: −8.77% | Avg (mTOR S2448) [5]: −11.73% | Avg (mTOR S2481) [5]: −0.24% | Avg (mTOR) [5]: −3.27% | Avg (p70 S6 Kinase) [5]: −3.59% | Avg (p90 RSK S380) [5]: −35% | Avg(S6 Ribo Prot S235 236) [5]: −79.46% | Avg(S6 Ribo Prot S240 244) [5]: −88.03% | Avg(Tuberin TSC2 Y1571) [5]: 1.7% | Avg(p70 S6 Kinase S371 S394) [5]: −28.27% | Avg(p70 S6 Kinase T389 T412) [5]: −39.23% | IC50 [6]: 200 nM
